Assay results taken from ChEMBL document CHEMBL1129654, “2-Carbomethoxy-3-(diarylmethoxy)-1 alpha H, 5 alpha H-tropane analogs: synthesis and inhibition of binding at the dopamine transporter and comparison with piperazines of the GBR series” (J Med Chem, 1996).

Assays:
[1] = molecular target: Sodium-dependent serotonin transporter; assay: Inhibition of [3H]citalopram binding to the serotonin transporter in the cynomolgus (macaca fascicularis) monkey caudate-putamen.; format: tissue-based, Cercopithecidae
[2] = Inhibition of [3H]WIN-35428 binding to the dopamine transporter in the cynomolgus (macaca fascicularis) monkey caudate-putamen.

| SMILES | IC50 [1] | IC50 [2] |
| --- | --- | --- |
| CN1C2CCC1CC(OC(c1ccc(F)cc1)c1ccc(F)cc1)C2 (stereo not drawn) [DIFLUOROBENZTROPINE] | 5.34 µM |  |
| COC(=O)C1C2CCC(C[C@@H]1OC(c1ccccc1)c1ccccc1)N2C (stereo partly drawn) | 10.1 µM |  |
| COC(=O)C1C2CCC(C[C@@H]1OC(c1ccc(I)cc1)c1ccc(I)cc1)N2C (stereo partly drawn) | 8.55 µM |  |
| COC(=O)C1C2CCC(C[C@@H]1OC(c1ccc(F)cc1)c1ccc(F)cc1)N2CCCc1ccc(Br)cc1 (stereo partly drawn) | 0.234 µM |  |
| COC(=O)C1C2CCC(C[C@@H]1OC(c1ccc(F)cc1)c1ccc(F)cc1)N2Cc1ccccc1 (stereo partly drawn) | 4.97 µM |  |
| COC(=O)C1C2CCC(C[C@@H]1OC(c1ccc(C)cc1)c1ccc(C)cc1)N2C (stereo partly drawn) | 9.8 µM | 0.24 µM |
| COC(=O)C1C2CCC(C[C@@H]1OC(c1ccccc1)c1ccc(C)cc1)N2C (stereo partly drawn) | 13.2 µM |  |
| COC(=O)C1C2CCC(C[C@@H]1OC(c1ccc(F)cc1)c1ccc(F)cc1)N2CCCc1ccccc1 (stereo partly drawn) | 0.0197 µM |  |
| COC(=O)C1C2CCC(C[C@@H]1OC(c1ccc(Br)cc1)c1ccc(I)cc1)N2C (stereo partly drawn) | 4.39 µM | 0.389 µM |
| COC(=O)C1C2CCC(C[C@@H]1OC(c1ccccc1)c1ccc(I)cc1)N2C (stereo partly drawn) | 9.28 µM |  |
| COC(=O)C1C2CCC(C[C@@H]1OC(c1ccccc1)c1ccc(Cl)cc1)N2C (stereo partly drawn) | 5.96 µM |  |
| COC(=O)C1C2CC[C@@H](C[C@@H]1OC(c1ccc(F)cc1)c1ccc(F)cc1)N2C (stereo partly drawn) | 3.53 µM |  |
| COC(=O)C1C2CCC(C[C@@H]1OC(c1ccc(F)cc1)c1ccc(F)cc1)N2CCCc1ccc(I)cc1 (stereo partly drawn) | 2.2 µM | 0.119 µM |
| COC(=O)C1C2CCC(C[C@@H]1OC(c1ccccc1)c1ccc(Br)cc1)N2C (stereo partly drawn) | 5.77 µM | 0.024 µM |
| COC(=O)C1C2CCC(C[C@@H]1OC(c1ccc(Cl)cc1)c1ccc(Cl)cc1)N2C (stereo partly drawn) | 3.36 µM | 0.0914 µM |
| COC(=O)C1C2CCC(C[C@@H]1OC(c1ccc(Br)cc1)c1ccc(Br)cc1)N2C (stereo partly drawn) | 2.43 µM |  |
| COC(=O)C1C2CCC(C[C@@H]1OC(c1ccccc1)c1ccc(F)cc1)N2C (stereo partly drawn) | 4.93 µM | 0.0132 µM |
| COC(=O)C1C2CCC(C[C@@H]1OC1c3ccccc3-c3ccccc31)N2C (stereo partly drawn) | 3.44 µM | 6.03 µM |
| CCC(O[C@H]1CC2CCC(C1C(=O)OC)N2C)c1ccccc1 (stereo partly drawn) | 21 µM |  |
| COC(=O)C1C2CCC(C[C@@H]1OC(c1ccc(F)cc1)c1ccc(F)cc1)N2CCCCCc1ccccc1 (stereo partly drawn) | 0.55 µM | 0.099 µM |
